Results taken from publication PMC8397297 (ACS Chemical Neuroscience, 2021).

Key:
mGAT3 = biological target: T1, mGAT3 (Mus musculus, UniProt P31649); assay: [3H]GABA uptake assay in HEK-293 cells stably expressing mGAT3; assay type: cell-based; conditions: [3H]GABA uptake; read-out: pIC50 ± SEM mGAT3 (converted)
T1 construct: expressed in transfected cells; host or cells: HEK-293
T1 sequence (P31649 1-602): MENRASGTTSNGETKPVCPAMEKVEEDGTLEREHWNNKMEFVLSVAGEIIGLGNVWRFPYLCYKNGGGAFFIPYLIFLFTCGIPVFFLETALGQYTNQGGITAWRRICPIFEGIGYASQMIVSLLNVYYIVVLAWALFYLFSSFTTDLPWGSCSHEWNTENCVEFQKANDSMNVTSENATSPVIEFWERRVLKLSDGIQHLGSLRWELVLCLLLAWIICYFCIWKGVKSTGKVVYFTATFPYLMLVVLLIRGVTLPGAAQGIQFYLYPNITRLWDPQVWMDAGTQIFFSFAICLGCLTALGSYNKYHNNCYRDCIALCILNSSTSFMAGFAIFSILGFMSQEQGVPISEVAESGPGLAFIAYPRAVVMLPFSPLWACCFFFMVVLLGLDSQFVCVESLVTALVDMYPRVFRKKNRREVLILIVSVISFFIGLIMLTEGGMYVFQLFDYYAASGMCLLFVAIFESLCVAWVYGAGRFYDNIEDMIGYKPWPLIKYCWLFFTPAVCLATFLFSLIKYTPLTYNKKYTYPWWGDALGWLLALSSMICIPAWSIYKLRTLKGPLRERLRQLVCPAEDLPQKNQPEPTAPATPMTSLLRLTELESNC

mGAT1 [1] = biological target: T2, mGAT1 (Mus musculus, UniProt P31648); assay: competitive MS binding assay with NO711 as unlabeled marker (LC-ESI-MS/MS); conditions: for remaining NO711 binding mGAT1: in the presence of 100 μM inhibitor
T2 construct: expressed in transfected cells; host or cells: HEK-293
Method: Specific binding affinity toward mGAT1 was determined via a competitive mass spectrometry (MS) binding assay quantified by liquid chromatography–electrospray ionization tandem mass spectrometry (LC–ESI-MS/MS) with NO711 as an unlabeled marker.[50]
MS binding assays for mGAT1 were performed as described earlier.[50] Inhibition of mGAT1 binding by the synthesized compounds was determined in MS binding assays at a screening concentration of 100 μM and analyzed by LC–ESI-MS/MS.

mGAT2 = biological target: T3, mGAT2 (Mus musculus, UniProt P31651); assay: [3H]GABA uptake assay in HEK-293 cells stably expressing mGAT2; assay type: cell-based; conditions: for remaining [3H]GABA uptake mGAT2: in the presence of 100 μM inhibitor; for IC50: [3H]GABA uptake, read-out: pIC50 ± SEM mGAT2 (converted)
T3 construct: expressed in transfected cells; host or cells: HEK-293
T3 sequence (P31651 1-614): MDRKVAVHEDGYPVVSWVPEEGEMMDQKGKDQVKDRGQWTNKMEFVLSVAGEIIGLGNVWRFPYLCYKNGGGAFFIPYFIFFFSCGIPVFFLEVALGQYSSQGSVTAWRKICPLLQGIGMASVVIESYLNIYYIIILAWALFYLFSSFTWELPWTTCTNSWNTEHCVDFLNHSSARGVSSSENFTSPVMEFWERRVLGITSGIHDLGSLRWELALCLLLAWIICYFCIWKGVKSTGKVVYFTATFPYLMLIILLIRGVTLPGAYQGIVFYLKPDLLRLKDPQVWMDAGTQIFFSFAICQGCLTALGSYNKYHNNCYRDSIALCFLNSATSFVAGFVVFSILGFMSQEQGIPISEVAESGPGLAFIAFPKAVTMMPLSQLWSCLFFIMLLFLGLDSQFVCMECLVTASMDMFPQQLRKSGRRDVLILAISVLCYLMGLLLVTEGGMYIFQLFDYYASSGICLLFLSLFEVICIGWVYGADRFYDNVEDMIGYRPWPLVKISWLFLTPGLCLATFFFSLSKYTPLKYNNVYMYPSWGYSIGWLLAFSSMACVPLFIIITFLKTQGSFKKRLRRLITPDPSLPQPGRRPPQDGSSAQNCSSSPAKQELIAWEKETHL

mGAT1 [2] = biological target: T2, mGAT1; assay: [3H]GABA uptake assay in HEK-293 cells stably expressing mGAT1; assay type: cell-based; conditions: for remaining [3H]GABA uptake mGAT1: in the presence of 100 μM inhibitor; for IC50: [3H]GABA uptake, read-out: pIC50 ± SEM mGAT1 (converted)
mGAT4 = biological target: T4, mGAT4 (Mus musculus, UniProt P31650); assay: [3H]GABA uptake assay in HEK-293 cells stably expressing mGAT4; assay type: cell-based; conditions: for IC50: [3H]GABA uptake, read-out: pIC50 ± SEM mGAT4 (converted)
T4 construct: expressed in transfected cells; host or cells: HEK-293
T4 sequence (P31650 1-627): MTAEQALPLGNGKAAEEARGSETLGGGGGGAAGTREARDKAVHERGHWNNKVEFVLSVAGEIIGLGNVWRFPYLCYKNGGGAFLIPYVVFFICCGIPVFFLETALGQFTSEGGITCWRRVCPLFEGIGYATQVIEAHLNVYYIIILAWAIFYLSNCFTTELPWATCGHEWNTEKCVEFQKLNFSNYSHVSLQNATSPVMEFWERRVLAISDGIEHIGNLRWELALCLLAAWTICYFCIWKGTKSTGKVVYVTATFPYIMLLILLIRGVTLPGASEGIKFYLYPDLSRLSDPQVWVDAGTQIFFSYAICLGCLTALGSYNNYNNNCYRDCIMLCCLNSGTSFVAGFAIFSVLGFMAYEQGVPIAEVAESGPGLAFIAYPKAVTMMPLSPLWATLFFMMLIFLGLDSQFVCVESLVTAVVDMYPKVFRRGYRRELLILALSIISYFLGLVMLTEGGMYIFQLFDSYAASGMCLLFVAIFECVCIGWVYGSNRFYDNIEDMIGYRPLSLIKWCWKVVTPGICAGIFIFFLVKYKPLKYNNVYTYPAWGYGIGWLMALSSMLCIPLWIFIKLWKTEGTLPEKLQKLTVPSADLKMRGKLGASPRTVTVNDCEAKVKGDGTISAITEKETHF

Compound: CCC(C(=O)NCc1ccccc1Cl)N(C)CCON=C(c1ccccc1)c1ccccc1 (centres unmarked) [Compound 66b, N-(2-Chlorobenzyl)-2-((2-(((diphenylmethylene)amino)oxy)ethyl)(methyl)amino)butanamide]
- IC50 (mGAT3): 45.7 µM
- remaining NO711 binding mGAT1 (mGAT1 [1]): 100 μM: 107%
- remaining [3H]GABA uptake mGAT2 (mGAT2): 100 μM: 59%
- remaining [3H]GABA uptake mGAT1 (mGAT1 [2]): 100 μM: 69%
- remaining [3H]GABA uptake mGAT4 (mGAT4; in the presence of 100 μM inhibitor): 100 μM: 50%

Compound: Cc1ccsc1C(=C1CCN(C(CO)C(=O)NCc2ccccc2)CC1)c1sccc1C (centres unmarked) [Compound 54a, N-Benzyl-2-{4-[bis(3-methylthiophen-2-yl)methylidene]piperidin-1-yl}-3-hydroxypropanamide]
- IC50 (mGAT3): 16.2 µM
- remaining NO711 binding mGAT1 (mGAT1 [1]): 100 μM: 86%
- IC50 (mGAT2): 16.6 µM
- IC50 (mGAT1 [2]): 15.1 µM
- IC50 (mGAT4): 44.7 µM

Compound: CN(CCC=C1c2ccccc2C=Cc2ccccc21)C(CO)C(=O)NCc1ccccc1 (centres unmarked) [Compound 55a, 2-((3-(5H-Dibenzo[a,d][7]annulen-5-ylidene)propyl)(methyl)amino)-N-benzyl-3-hydroxypropanamide]
- IC50 (mGAT3): 15.8 µM
- remaining NO711 binding mGAT1 (mGAT1 [1]): 100 μM: 83%
- IC50 (mGAT2): 26.3 µM
- IC50 (mGAT1 [2]): 17.4 µM
- IC50 (mGAT4): 8.32 µM

Compound: CC(=O)NCCC(C(=O)NCc1ccc(Cl)c(Cl)c1)N(C)CCON=C(c1ccccc1)c1ccccc1 (centres unmarked) [Compound 51b, N-[(3,4-Dichlorophenyl)methyl]-2-[(2-{[(diphenylmethylidene)amino]oxy}ethyl)(methyl)amino]-4-acetamidobutanamide]
- IC50 (mGAT3): 6.76 µM
- remaining NO711 binding mGAT1 (mGAT1 [1]): 100 μM: 72%
- IC50 (mGAT2): 12 µM
- IC50 (mGAT1 [2]): 11.7 µM
- IC50 (mGAT4): 11.2 µM

Compound: CN(CCC=C1c2ccccc2CCc2ccccc21)C(CO)C(=O)NCc1ccc(Cl)cc1 (centres unmarked) [Compound 56c, N-(4-Chlorobenzyl)-2-((3-(10,11-dihydro-5H-dibenzo[a,d][7]annulen-5-ylidene)propyl)(methyl)amino)-3-hydroxypropanamide]
- IC50 (mGAT3): 14.5 µM
- remaining NO711 binding mGAT1 (mGAT1 [1]): 100 μM: 87%
- IC50 (mGAT2): 29.5 µM
- IC50 (mGAT1 [2]): 61.7 µM
- IC50 (mGAT4): 10.2 µM

Compound: CCC(C(=O)NCc1ccccc1)N(C)CCC=C(c1sccc1C)c1sccc1C (centres unmarked) [Compound 68, N-Benzyl-2-((4,4-bis(3-methylthiophen-2-yl)but-3-en-1-yl)(methyl)amino)butanamide]
- IC50 (mGAT3): 30.9 µM
- remaining NO711 binding mGAT1 (mGAT1 [1]): 100 μM: 81%
- IC50 (mGAT2): 39.8 µM
- IC50 (mGAT1 [2]): 26.9 µM
- IC50 (mGAT4): 12.9 µM

Compound: O=C(NCc1ccccc1)C(CO)N1CCC(=C2c3ccccc3-c3ccccc32)CC1 (centres unmarked) [Compound 57, N-Benzyl-2-[4-(9H-fluoren-9-ylidene)piperidin-1-yl]-3-hydroxypropanamide]
- IC50 (mGAT3): 69.2 µM
- remaining NO711 binding mGAT1 (mGAT1 [1]): 100 μM: 84%
- IC50 (mGAT2): 17.8 µM
- IC50 (mGAT1 [2]): 24.5 µM
- IC50 (mGAT4): 36.3 µM

Compound: CN(CCON=C(c1ccccc1)c1ccccc1)C(CCO)C(=O)NCc1ccccc1Cl (centres unmarked) [Compound 47b, N-[(2-Chlorophenyl)methyl]-2-[(2-{[(diphenylmethylidene)amino]oxy}ethyl)(methyl)amino]-4-hydroxybutanamide]
- IC50 (mGAT3): 9.12 µM
- remaining NO711 binding mGAT1 (mGAT1 [1]): 100 μM: 86%
- IC50 (mGAT2): 13.8 µM
- IC50 (mGAT1 [2]): 31.6 µM
- IC50 (mGAT4): 18.6 µM

Compound: CC(O)CC(C(=O)NCc1ccccc1)N(C)CCON=C(c1ccccc1)c1ccccc1 (centres unmarked) [2RS,4SR-45, N-Benzyl-2-[(2-{[(diphenylmethylidene)amino]oxy}ethyl)(methyl)amino]-4-hydroxypentanamide]
- IC50 (mGAT3): 18.2 µM
- remaining NO711 binding mGAT1 (mGAT1 [1]): 100 μM: 86%
- IC50 (mGAT2): 31.6 µM
- IC50 (mGAT1 [2]): 57.5 µM
- IC50 (mGAT4): 39.8 µM

Compound: CC(O)CC(C(=O)NCc1ccccc1)N(C)CCON=C(c1ccccc1)c1ccccc1 (centres unmarked) [2RS,4RS-45, N-Benzyl-2-[(2-{[(diphenylmethylidene)amino]oxy}ethyl)(methyl)amino]-4-hydroxypentanamide]
- IC50 (mGAT3): 20 µM
- remaining NO711 binding mGAT1 (mGAT1 [1]): 100 μM: 100%
- IC50 (mGAT2): 45.7 µM
- IC50 (mGAT1 [2]): 43.7 ± 0.801 µM
- IC50 (mGAT4): 28.2 µM

Compound: CN(CCON=C(c1ccccc1)c1ccccc1)C(CO)C(=O)NCc1ccccc1Cl (centres unmarked) [Compound 59b]
- IC50 (mGAT3): 15.8 µM
- remaining NO711 binding mGAT1 (mGAT1 [1]): 100 μM: 92%
- IC50 (mGAT2): 12.9 µM
- IC50 (mGAT1 [2]): 44.7 µM
- IC50 (mGAT4): 12.9 µM

Compound: CCOC(=O)C(C)N(C)CCC=C(c1sccc1C)c1sccc1C (centres unmarked) [Compound 73, Ethyl 2-((4,4-Bis(3-methylthiophen-2-yl)but-3-en-1-yl)(methyl)amino)propanoate]
- IC50 (mGAT3): 25.1 µM
- remaining NO711 binding mGAT1 (mGAT1 [1]): 100 μM: 94%
- remaining [3H]GABA uptake mGAT2 (mGAT2): 100 μM: 52%
- remaining [3H]GABA uptake mGAT1 (mGAT1 [2]): 100 μM: 55%
- IC50 (mGAT4): 52.5 µM

Compound: Cc1ccc(CNC(=O)C(CO)N(C)CCC=C2c3ccccc3C=Cc3ccccc32)cc1 (centres unmarked) [Compound 55e, 2-((3-(5H-Dibenzo[a,d][7]annulen-5-ylidene)propyl)(methyl)amino)-N-(4-methylbenzyl)-3-hydroxypropanamide]
- IC50 (mGAT3): 15.8 µM
- Ki (mGAT1 [1]; MS binding assay, read-out: pKi ± SEM mGAT1 (converted)): 29.5 µM
- IC50 (mGAT2): 21.4 µM
- IC50 (mGAT1 [2]): 26.9 µM
- IC50 (mGAT4): 13.2 µM

Compound: Cc1ccc(CNC(=O)[C@@H](C[C@H](C)O)N(C)CCC=C2c3ccccc3CCc3ccccc32)cc1 (relative stereo) [2RS,4SR-39c, 2-((3-(10,11-Dihydro-5H-dibenzo[a,d][7]annulen-5-ylidene)propyl)(methyl)amino)-4-hydroxy-N-(4-methylbenzyl)pentanamide]
- IC50 (mGAT3): 7.94 µM
- remaining NO711 binding mGAT1 (mGAT1 [1]): 100 μM: 73%
- IC50 (mGAT2): 8.13 µM
- remaining [3H]GABA uptake mGAT1 (mGAT1 [2]): 100 μM: 51%
- IC50 (mGAT4): 6.92 µM

Compound: O=C(NCc1ccccc1)C(CO)N1CCC(=C2c3ccccc3CCc3ccccc32)CC1 (centres unmarked) [Compound 58, N-Benzyl-2-(4-(10,11-dihydro-5H-dibenzo[a,d][7]annulen-5-ylidene)piperidin-1-yl)-3-hydroxypropanamide]
- IC50 (mGAT3): 20.9 µM
- remaining NO711 binding mGAT1 (mGAT1 [1]): 100 μM: 83%
- IC50 (mGAT2): 22.4 µM
- IC50 (mGAT1 [2]): 35.5 µM
- IC50 (mGAT4): 23.4 µM

Compound: Cc1ccsc1C(=C1CCN(C(CC(C)O)C(=O)NCc2ccccc2Cl)CC1)c1sccc1C (centres unmarked) [2RS,4RS-37b, 2-{4-[Bis(3-methylthiophen-2-yl)methylidene]piperidin-1-yl}-N-[(2-chlorophenyl)methyl]-4-hydroxypentanamide]
- IC50 (mGAT3): 93.3 µM
- remaining NO711 binding mGAT1 (mGAT1 [1]): 100 μM: 94%
- remaining [3H]GABA uptake mGAT2 (mGAT2): 100 μM: 58%
- remaining [3H]GABA uptake mGAT1 (mGAT1 [2]): 100 μM: 52%
- IC50 (mGAT4): 61.7 µM
